# According to article PMC4501038 (RSC advances, 2015):
# Structures can show the parent of a compound that is named as a salt. Non-standard residues stand in square brackets, D forms with d. pGlu = O=C1CC[C@@H](C(=O)O)N1
# Legend:
# scopolamine-treated mice [1] = experiment: Scopolamine-induced memory impairment, Morris water maze; assay type: in vivo; conditions: for working memory: escape latencies trial 1 vs trial 2: each day for four days, 6c 3.9 mg/kg, scopolamine 1 mg/kg
# scopolamine-treated mice [2] = experiment: Scopolamine-induced memory impairment, passive avoidance test; assay type: in vivo; conditions: rivastigmine (positive control) plus scopolamine
# anesthetized mice [3] = experiment: Cerebral blood flow; assay type: in vivo; conditions: 6c 3.9 mg/kg, % change from basal
# mice = experiment: Functional observation battery; conditions: mouse, in vivo
# Swiss albino mice = experiment: Reversal of pentobarbital-induced sleeping time; assay type: in vivo; conditions: 10 μmol/kg i.v.
# rodents = conditions: cited from earlier work
# anesthetized mice [4] = experiment: Cardiovascular parameters; conditions: noradrenaline, dose not given
# TRH-DE = conditions: read-out: Ki, inhibition of TRH-DE; cited from earlier work
# central TRH receptors = conditions: read-out: Ki, binding to central TRH receptors; cited from earlier work
molecule,measurement,setting,value
CCN(C)C(=O)Oc1cccc([C@H](C)N(C)C)c1 [rivastigmine],working memory: escape latencies trial 1 vs trial 2,scopolamine-treated mice [1],"significant effect on day 1, 2 and 3"
same,step through latency (retention),scopolamine-treated mice [2],235.1 ± 27.6 s
"NC(=O)[C@@H]1CCCN1C(=O)[C@H](Cc1cnc[nH]1)NC(=O)[C@@H]1CCC(=O)N1 [TRH, pGlu-His-ProNH2]",working memory: escape latencies trial 1 vs trial 2,scopolamine-treated mice [1],significantly decrease in trial 2 compared to trial 1 on all four days
same,increase in cerebral blood flow,anesthetized mice [3],93.4±2.9%
same,FOB arousal,mice,moderate arousal
same,FOB gait and posture,mice,normal till three hours
same,FOB posture,mice,normal posture
same,FOB respiration,mice,do not affect normal respiration
same,FOB spontaneous activity in open field,mice,do not increase spontaneous activity
same,Sleeping duration (Mean± SEM),"Swiss albino mice; pentobarbital 50 mg/kg i.p. 10 min later, mice",53.9 ± 3.7 min
same,(%) Reduction in time,"Swiss albino mice; relative to control, pentobarbital 50 mg/kg i.p.",42.5%
"CN1[C@@H]2C[C@@H](OC(=O)[C@H](CO)c3ccccc3)C[C@H]1[C@@H]1O[C@@H]12 [scopolamine, scopolamine hydrobromide]",area under curve of the escape latencies in four-day trial,"scopolamine-treated mice [1]; dose study, scopolamine (1 mg/kg i.p.) alone",337.5 ± 12.2 s
same,working memory: escape latencies trial 1 vs trial 2,scopolamine-treated mice [1],did not show any significant difference between two trials
"[1-methyl-(S)-4,5-dihydroorotyl)]-L-His-L-ProNH2 [TAL]","doses producing CNS effects, times lower than TRH",rodents,about 100 times
same,duration of antagonistic action on PB-induced sleep relative to TRH,rodents,eight times longer
NC[C@H](O)c1ccc(O)c(O)c1 [Noradrenaline],Δ Heart Rate,anesthetized mice [4],56.6±9 BPM
same,Δ MAP,anesthetized mice [4],42.8±2.2 mm Hg
same,Δ mean Diastolic BP,anesthetized mice [4],37.2±3.2 mm Hg
same,Δ mean Systolic BP,anesthetized mice [4],54.1±1.7 mm Hg
[pGlu]NP[dY][dW]-NH2,Ki,TRH-DE,0.151 µM
same,Ki,central TRH receptors,0.0068 µM
